The text below walks through data of the SangsterLogP compilation.

One data set in a line: method code SF-AS, from DOI: 10.1016/0223-5234(92)90084-e.
Conditions: not given
The logP is a log measure of how a compound divides between an organic and an aqueous phase. A low value points to lower lipophilicity. `CC(C(=O)O)c1ccc(-c2nc3c(s2)CCCC3)cc1` (centres undefined) registered a logP of 4.41.
Still for that read-out and setting: in the case of `CC(C(=O)O)c1ccc(-c2nccs2)c([N+](=O)[O-])c1` (centres undefined) it was 2.06; in that of `CC(C(=O)O)c1ccc(-c2nccs2)c(F)c1` (centres undefined), 3.14.
On to `Cc1csc(-c2ccc(C(C)C(=O)O)cc2F)n1` (centres undefined), for which the logP is 3.52.
`CC(C(=O)O)c1ccc(-c2nc(CO)cs2)cc1` (centres undefined) displayed a lipophilicity (logP) of 2.25.
Same read-out and setting: in the case of `Cc1csc(-c2ccc(C(C)C(=O)O)cc2Cl)n1` (centres undefined) it was 3.65; in that of `Cc1nc(-c2ccc(C(C)C(=O)O)cc2)sc1C` (centres undefined), 3.36; in that of `Cc1cnc(-c2ccc(C(C)C(=O)O)cc2F)s1` (centres undefined), 3.55.
Same read-out and setting: under `CCCCc1csc(-c2ccc(C(C)C(=O)O)cc2F)n1` (centres undefined) stands 4.66; under `COCc1csc(-c2ccc(C(C)C(=O)O)cc2)n1` (centres undefined), 2.78; under `CC(C(=O)O)c1ccc(-c2nccs2)c(Cl)c1` (centres undefined), 3.39.
The same measure, in the same setting: under `CCCCc1csc(-c2ccc(C(C)C(=O)O)cc2)n1` (centres undefined) stands 4.04; under `CCCCc1csc(-c2ccc(C(C)C(=O)O)cc2Cl)n1` (centres undefined), 4.84.
On to `CCc1csc(-c2ccc(C(C)C(=O)O)cc2)n1` (centres undefined), for which the log partition coefficient (logP) was 3.75.
In turn, `Cc1cnc(-c2ccc(C(C)C(=O)O)cc2Cl)s1` (centres undefined) returned a logP of 3.66.
The same measure, in the same setting: in the case of `CCc1cnc(-c2ccc(C(C)C(=O)O)cc2F)s1` (centres undefined) it was 4.1; in that of `CCc1nc(-c2ccc(C(C)C(=O)O)cc2)sc1C` (centres undefined), 3.99; in that of `COc1cc(C(C)C(=O)O)ccc1-c1nccs1` (centres undefined), 2.47.
Take `CCc1cnc(-c2ccc(C(C)C(=O)O)cc2Cl)s1` (centres undefined): the logP amounted to 4.39.
The same measure, in the same setting: in the case of `Cc1nc(-c2ccc(C(C)C(=O)O)cc2Cl)sc1C` (centres undefined) it was 3.94; in that of `Cc1nc(-c2ccc(C(C)C(=O)O)cc2F)sc1C` (centres undefined), 3.74.
On the same count and under the same terms, in the case of `Cc1csc(-c2ccc(C(C)C(=O)O)cc2)n1` (centres undefined) it was 3.03.

Staying with this data set, now noted: pH 2.0.
As usually defined, the logD is lipophilicity at a set pH, counting ionised and neutral species. Lower therefore signals lower lipophilicity. `CC(C(=O)O)c1ccc(-c2nc(C(F)(F)F)cs2)cc1` (centres undefined) yielded a logD of 3.78.
Still for that read-out and setting: in the case of `CC(=O)c1csc(-c2ccc(C(C)C(=O)O)cc2)n1` (centres undefined) it was 2.65.
Still for that read-out and setting: under `CNC(=O)c1csc(-c2ccc(C(C)C(=O)O)cc2)n1` (centres undefined) stands 2.45; under `CC(C(=O)O)c1ccc(-c2nc(C(=O)N(C)C)cs2)cc1` (centres undefined), 2.15.
Still for that read-out and setting: in the case of `CCc1csc(-c2ccc(C(C)C(=O)O)cc2F)n1` (centres undefined) it was 3.58.
Regarding `CC(C(=O)O)c1ccc(-c2nc(C(N)=O)cs2)cc1` (centres undefined), the logD was determined as 2.17.
On the same count and under the same terms, in the case of `C=Cc1csc(-c2ccc(C(C)C(=O)O)cc2)n1` (centres undefined) it was 3.54; in that of `C=CCc1csc(-c2ccc(C(C)C(=O)O)cc2)n1` (centres undefined), 3.4; in that of `CC(C(=O)O)c1ccc(-c2nc(-c3ccccc3)cs2)cc1` (centres undefined), 4.81.
The same measure, in the same setting: under `CC(C)c1csc(-c2ccc(C(C)C(=O)O)cc2F)n1` (centres undefined) stands 4.04; under `CC(C)c1csc(-c2ccc(C(C)C(=O)O)cc2Cl)n1` (centres undefined), 4.26.

Staying with this data set, now noted: pH 3.4.
As for `CC(C(=O)O)c1ccc(-c2nccs2)c(N)c1` (centres undefined), the logD worked out at 2.45.
